Source: US12544375B2, “Small molecule therapeutic for parkinson's disease paired with a biomarker of therapeutic activity” (The Board of Trustees of the Leland Stanford Junior …, priority 2019, dated 2026)

Test system: iPSC-derived dopaminergic neurons from PD patients
Experiment: Antimycin A stress-induced neurodegeneration of iPSC-derived dopaminergic neurons (TH, PI staining)
Assay type: cell-based, human
Settings: 5 μM for 30 hrs, 10 μM Antimycin A for 6 hrs, neurons from both PD patients
Experimental: FIG. 3A-FIG. 3D. Miro1 Reducer Rescues Parkinson's Neurodegeneration. (FIG. 3A) Fibroblasts were treated, lysed, and blotted as indicated. Band intensities are normalized to those of ATP5β from the same blots and compared to “Healthy-2, no treatment”. n=4. (FIG. 3B-FIG. 3C) iPSC-derived neurons were treated as indicated and immunostained with anti-TH (FIG. 3B) or stained with PI and Dapi (FIG. 3C). Both Antimycin A and Miro1 Reducer were dissolved in ethanol. Neurons were pretreated with Miro1 Reducer 24 hrs before the application of Antimycin A for another 6 hrs. The same volume of ethanol was applied at the same time in negative controls. (FIG. 3B) The density of TH-positive neurons is calculated in each condition under 20×, from 10 fields each experiment, 3-4 experiments. […] (FIG. 3C) The percentage of PI-positive cells out of total cells (Dapi-positive) is calculated. n=20 fields each experiment, 4 experiments. For (FIG. 3B-FIG. 3C), comparisons with “Wild-type-I, no treatment” except otherwise indicated. […] Graphs of Mean±S.E.M show the percent of time each mitochondrion is in motion (red and blue, compared to “Wild-type-I, before treatment”), and the mitochondrial intensity normalized to that of the same axonal region at “0 min” and expressed as a fraction of the mean of “Wild-type-I, 0 min”. n=33-77 mitochondria from 5-8 axons from 5-8 separate transfections. […]

`O=C(Nc1ccc(Nc2cc(-n3ccnc3)ncn2)cc1)Nc1cccc(F)c1` [Miro1 Reducer] was tested, and the “stress-induced neurodegeneration of dopaminergic neurons” value was “completely rescued”.
